This note sets out measurements from ChEMBL document CHEMBL5465560, “Selectivity Literature for EUbOPEN Chemogenomic Library” (2024).

The target in experiment [1] is Angiopoietin-1 receptor (Homo sapiens) (UniProt Q02763). The experiment is described as follows: Selectivity interaction (KinomeScan (DiscoverX)) EUB0000229b TEK. The conditions noted are these: at 10 µM.
The target in experiment [2] is Tyrosine-protein kinase Fgr (Homo sapiens) (UniProt P09769). Put plainly: Selectivity interaction (KinomeScan (DiscoverX)) EUB0001079a FGR. The following applies: at 1 µM.
Experiment [3] addresses Serine/threonine-protein kinase Chk2 (Homo sapiens) (UniProt O96017). Put plainly: Selectivity interaction (ActivX KiNativ screen (ex vivo kinase selectivity in human PBMCs)) EUB0001619a CHEK2. The format is cell-based. The conditions noted are these: PBMC, at 1 µM.
Experiment [4] has as its target Angiopoietin-1 receptor (Homo sapiens) (UniProt Q02763). Put plainly: Selectivity interaction (KinomeScan (DiscoverX)) EUB0001619a TEK. The conditions noted are these: at 1 µM.
Experiment [5] has as its target Serine/threonine-protein kinase 10 (Homo sapiens) (UniProt O94804). The following applies: at 10 µM.
Experiment [6] addresses T1, Serine/threonine-protein kinase TAO3 (Homo sapiens) (UniProt Q9H2K8).
T1 sequence (whole entry): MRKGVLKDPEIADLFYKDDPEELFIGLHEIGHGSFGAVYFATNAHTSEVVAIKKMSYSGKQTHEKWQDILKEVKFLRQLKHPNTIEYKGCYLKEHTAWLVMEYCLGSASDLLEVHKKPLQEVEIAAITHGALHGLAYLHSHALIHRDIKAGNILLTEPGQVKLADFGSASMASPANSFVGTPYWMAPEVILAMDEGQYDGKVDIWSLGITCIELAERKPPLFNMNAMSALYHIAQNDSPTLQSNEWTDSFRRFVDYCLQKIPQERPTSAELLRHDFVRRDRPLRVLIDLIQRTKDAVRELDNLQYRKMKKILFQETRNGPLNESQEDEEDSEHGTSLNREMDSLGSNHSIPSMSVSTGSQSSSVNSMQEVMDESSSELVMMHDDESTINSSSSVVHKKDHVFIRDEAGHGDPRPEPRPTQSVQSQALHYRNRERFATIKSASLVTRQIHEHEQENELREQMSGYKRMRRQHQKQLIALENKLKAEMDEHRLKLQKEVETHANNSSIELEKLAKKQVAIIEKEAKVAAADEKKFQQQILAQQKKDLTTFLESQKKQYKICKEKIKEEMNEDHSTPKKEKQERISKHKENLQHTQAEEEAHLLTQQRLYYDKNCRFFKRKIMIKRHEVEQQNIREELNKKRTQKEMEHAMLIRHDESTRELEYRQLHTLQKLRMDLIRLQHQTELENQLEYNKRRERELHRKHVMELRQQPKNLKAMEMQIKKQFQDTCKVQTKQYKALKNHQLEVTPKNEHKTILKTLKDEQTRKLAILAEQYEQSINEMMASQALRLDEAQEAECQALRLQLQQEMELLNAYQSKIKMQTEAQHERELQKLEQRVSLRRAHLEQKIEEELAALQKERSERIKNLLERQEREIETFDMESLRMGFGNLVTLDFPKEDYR
Put plainly: Selectivity interaction (KinomeScan (DiscoverX)) EUB0000695a TAOK3. The following applies: at 100 nM.

Experiment [7] concerns the target Homeodomain-interacting protein kinase 3 (Homo sapiens, UniProt Q9H422). The experiment is described as follows: Selectivity interaction (KinomeScan (DiscoverX)) EUB0000695a HIPK3. The conditions noted are these: at 100 nM.
The target of experiment [8] is Macrophage-stimulating protein receptor (Homo sapiens, UniProt Q04912). Put plainly: Selectivity interaction (ProQinase) EUB0000171b MST1R.
Experiment [9] addresses T2, Rhodopsin kinase GRK1 (Homo sapiens) (UniProt Q15835).
T2 sequence (whole entry): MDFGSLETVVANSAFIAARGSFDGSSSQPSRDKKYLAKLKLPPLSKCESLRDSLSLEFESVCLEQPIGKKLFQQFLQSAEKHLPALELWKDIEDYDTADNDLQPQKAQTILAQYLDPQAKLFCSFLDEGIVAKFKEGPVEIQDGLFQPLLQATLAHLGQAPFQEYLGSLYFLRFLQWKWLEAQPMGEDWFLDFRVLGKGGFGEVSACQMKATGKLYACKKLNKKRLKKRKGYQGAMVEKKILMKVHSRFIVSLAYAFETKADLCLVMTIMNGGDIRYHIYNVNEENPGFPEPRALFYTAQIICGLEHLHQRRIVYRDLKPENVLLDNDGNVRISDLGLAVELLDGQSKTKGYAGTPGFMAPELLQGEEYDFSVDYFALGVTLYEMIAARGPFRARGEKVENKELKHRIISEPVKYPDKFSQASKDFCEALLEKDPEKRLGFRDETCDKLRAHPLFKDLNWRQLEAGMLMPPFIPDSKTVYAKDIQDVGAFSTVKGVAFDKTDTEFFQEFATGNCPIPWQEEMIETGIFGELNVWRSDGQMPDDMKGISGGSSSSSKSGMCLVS
Put plainly: Selectivity interaction (KinomeScan (DiscoverX)) EUB0000092b GRK1. The conditions noted are these: at 10 µM.

Experiment [10] deals with Ribosomal protein S6 kinase alpha-3 (Homo sapiens, UniProt P51812). Put plainly: Selectivity interaction (KinomeScan (DiscoverX)) EUB0000092b RPS6KA3. The following applies: at 10 µM.
Experiment [11] concerns the target T3, Casein kinase I isoform delta (Homo sapiens, UniProt P48730). Put plainly: Selectivity interaction (Kinase panel (DSF assay)) EUB0001559a CSNK1D. On the technique in general: Differential scanning fluorimetry follows unfolding on heating by fluorescence.
Experiment [12] can be described thus: Selectivity interaction (KinomeScan (DiscoverX)) EUB0000618a CDK2H. The following applies: at 10 µM.
Experiment [13] addresses T3, Casein kinase I isoform delta. The experiment is described as follows: Selectivity interaction (Upstate Kinase Profiler service (Millipore)) EUB0000056c CSNK1D. The conditions noted are these: at 1 µM.
Experiment [14] has as its target T4, Serine/threonine-protein kinase tousled-like 1 (Homo sapiens) (UniProt Q9UKI8).
T4 sequence (whole entry): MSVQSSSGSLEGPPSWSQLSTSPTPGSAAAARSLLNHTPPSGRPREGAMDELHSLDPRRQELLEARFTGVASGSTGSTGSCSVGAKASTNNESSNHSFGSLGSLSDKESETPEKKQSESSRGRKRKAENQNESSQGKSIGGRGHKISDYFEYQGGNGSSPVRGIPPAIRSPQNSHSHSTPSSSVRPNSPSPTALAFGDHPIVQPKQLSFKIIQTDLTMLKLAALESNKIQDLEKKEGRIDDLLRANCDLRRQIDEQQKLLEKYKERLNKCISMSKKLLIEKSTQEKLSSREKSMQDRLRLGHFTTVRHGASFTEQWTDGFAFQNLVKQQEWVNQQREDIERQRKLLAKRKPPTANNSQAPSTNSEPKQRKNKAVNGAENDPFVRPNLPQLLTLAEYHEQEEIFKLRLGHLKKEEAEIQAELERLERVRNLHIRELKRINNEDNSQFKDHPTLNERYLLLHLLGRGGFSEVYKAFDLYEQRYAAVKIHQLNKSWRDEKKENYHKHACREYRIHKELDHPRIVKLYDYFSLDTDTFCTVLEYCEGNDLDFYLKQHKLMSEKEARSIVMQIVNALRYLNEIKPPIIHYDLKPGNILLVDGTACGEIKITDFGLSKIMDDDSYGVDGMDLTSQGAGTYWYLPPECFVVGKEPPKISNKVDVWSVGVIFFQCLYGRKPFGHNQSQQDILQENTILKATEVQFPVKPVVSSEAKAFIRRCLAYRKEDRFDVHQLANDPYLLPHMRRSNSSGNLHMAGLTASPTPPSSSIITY
The following applies: at 10 µM.

Sequence of Angiopoietin-1 receptor (Homo sapiens) (Q02763 whole entry): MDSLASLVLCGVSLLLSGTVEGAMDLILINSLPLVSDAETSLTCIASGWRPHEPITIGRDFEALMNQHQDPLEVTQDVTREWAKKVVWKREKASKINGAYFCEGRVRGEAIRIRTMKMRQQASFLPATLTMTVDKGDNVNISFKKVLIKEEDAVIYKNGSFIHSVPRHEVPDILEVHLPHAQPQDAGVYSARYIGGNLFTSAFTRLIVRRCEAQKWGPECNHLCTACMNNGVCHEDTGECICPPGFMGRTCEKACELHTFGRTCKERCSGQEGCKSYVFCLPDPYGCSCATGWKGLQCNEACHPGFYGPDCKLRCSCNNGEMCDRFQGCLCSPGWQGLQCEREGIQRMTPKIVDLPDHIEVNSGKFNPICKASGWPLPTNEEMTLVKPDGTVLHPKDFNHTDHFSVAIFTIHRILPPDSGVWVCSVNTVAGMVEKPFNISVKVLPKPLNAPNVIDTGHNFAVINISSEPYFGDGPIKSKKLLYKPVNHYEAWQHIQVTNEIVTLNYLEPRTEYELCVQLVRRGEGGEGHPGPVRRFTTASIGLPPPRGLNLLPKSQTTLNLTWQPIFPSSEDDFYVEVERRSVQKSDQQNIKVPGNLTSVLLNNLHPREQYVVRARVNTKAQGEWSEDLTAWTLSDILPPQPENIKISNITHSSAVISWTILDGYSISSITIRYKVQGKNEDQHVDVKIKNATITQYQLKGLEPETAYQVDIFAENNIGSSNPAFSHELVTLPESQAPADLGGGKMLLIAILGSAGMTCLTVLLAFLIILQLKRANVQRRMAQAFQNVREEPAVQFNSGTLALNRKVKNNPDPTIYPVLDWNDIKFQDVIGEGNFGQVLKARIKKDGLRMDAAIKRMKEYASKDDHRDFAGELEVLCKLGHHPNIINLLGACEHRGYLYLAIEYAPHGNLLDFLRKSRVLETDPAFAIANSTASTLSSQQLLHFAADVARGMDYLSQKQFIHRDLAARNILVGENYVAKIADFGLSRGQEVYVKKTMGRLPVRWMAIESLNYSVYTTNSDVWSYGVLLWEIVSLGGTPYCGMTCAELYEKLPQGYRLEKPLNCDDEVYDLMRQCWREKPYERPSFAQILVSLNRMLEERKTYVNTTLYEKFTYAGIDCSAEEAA
Sequence of Macrophage-stimulating protein receptor (Q04912 25-304 limits assumed): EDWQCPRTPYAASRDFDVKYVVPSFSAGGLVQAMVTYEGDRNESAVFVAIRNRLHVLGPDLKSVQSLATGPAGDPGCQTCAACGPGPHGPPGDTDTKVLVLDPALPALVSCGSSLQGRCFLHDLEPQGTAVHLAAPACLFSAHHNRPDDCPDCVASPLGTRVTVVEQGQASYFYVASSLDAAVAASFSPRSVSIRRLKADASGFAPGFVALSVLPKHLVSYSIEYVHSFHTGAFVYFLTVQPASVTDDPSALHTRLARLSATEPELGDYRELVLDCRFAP
Sequence of Macrophage-stimulating protein receptor (Q04912 310-1400 limits assumed): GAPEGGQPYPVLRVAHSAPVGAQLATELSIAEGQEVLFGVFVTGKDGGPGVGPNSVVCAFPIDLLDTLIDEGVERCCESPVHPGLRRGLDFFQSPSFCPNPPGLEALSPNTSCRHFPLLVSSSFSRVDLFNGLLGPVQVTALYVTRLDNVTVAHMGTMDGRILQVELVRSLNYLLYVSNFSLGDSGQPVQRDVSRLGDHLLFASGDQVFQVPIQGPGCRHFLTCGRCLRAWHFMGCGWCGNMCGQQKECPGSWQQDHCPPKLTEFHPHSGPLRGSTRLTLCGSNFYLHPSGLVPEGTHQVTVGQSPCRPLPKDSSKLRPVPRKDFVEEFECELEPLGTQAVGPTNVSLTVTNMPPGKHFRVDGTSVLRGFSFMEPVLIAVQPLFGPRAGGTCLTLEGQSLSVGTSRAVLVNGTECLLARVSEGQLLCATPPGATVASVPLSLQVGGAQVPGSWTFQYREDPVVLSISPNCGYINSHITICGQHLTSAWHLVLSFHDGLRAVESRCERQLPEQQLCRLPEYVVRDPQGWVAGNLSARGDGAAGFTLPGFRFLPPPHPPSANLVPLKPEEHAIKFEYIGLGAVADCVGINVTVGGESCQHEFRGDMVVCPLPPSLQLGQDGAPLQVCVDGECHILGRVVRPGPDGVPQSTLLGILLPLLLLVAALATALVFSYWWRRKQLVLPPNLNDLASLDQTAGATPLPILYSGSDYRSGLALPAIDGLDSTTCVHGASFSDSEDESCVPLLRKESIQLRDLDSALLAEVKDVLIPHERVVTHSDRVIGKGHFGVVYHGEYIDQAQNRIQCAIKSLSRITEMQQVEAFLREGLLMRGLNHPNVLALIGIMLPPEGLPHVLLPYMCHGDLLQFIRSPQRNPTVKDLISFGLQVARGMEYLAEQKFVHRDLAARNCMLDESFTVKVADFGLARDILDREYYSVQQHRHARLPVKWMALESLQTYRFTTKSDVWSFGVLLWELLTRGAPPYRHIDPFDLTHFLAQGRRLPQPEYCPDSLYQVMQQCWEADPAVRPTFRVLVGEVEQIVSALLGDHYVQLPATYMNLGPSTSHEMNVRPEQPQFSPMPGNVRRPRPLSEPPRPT
T3 sequence (P48730 whole entry, looked up, canonical isoform): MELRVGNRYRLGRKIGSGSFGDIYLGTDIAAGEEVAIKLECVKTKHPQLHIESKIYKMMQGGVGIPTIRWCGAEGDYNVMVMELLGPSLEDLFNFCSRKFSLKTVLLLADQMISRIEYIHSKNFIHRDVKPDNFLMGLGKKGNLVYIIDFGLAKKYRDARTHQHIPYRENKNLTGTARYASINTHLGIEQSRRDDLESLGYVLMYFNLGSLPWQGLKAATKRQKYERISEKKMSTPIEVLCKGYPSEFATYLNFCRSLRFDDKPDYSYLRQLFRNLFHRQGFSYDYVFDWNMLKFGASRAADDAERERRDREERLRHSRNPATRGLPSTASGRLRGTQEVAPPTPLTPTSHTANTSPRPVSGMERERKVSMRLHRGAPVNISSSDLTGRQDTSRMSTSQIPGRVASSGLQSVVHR
Sequence of Serine/threonine-protein kinase Chk2 (Homo sapiens) (O96017 whole entry): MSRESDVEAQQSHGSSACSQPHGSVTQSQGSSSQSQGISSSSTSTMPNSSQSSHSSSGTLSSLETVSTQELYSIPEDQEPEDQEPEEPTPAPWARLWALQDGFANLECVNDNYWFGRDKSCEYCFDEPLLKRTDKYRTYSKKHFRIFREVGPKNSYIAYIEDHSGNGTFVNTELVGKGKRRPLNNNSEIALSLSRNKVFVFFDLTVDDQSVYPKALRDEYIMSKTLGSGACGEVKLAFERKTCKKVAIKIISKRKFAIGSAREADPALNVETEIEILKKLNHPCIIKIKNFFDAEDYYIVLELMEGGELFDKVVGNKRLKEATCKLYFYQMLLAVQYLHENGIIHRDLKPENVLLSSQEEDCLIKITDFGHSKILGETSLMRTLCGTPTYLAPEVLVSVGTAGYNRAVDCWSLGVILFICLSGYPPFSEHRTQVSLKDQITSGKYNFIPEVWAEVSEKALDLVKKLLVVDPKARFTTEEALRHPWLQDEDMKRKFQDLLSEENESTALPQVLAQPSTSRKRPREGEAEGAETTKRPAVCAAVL
Sequence of Serine/threonine-protein kinase 10 (Homo sapiens) (O94804 whole entry, looked up): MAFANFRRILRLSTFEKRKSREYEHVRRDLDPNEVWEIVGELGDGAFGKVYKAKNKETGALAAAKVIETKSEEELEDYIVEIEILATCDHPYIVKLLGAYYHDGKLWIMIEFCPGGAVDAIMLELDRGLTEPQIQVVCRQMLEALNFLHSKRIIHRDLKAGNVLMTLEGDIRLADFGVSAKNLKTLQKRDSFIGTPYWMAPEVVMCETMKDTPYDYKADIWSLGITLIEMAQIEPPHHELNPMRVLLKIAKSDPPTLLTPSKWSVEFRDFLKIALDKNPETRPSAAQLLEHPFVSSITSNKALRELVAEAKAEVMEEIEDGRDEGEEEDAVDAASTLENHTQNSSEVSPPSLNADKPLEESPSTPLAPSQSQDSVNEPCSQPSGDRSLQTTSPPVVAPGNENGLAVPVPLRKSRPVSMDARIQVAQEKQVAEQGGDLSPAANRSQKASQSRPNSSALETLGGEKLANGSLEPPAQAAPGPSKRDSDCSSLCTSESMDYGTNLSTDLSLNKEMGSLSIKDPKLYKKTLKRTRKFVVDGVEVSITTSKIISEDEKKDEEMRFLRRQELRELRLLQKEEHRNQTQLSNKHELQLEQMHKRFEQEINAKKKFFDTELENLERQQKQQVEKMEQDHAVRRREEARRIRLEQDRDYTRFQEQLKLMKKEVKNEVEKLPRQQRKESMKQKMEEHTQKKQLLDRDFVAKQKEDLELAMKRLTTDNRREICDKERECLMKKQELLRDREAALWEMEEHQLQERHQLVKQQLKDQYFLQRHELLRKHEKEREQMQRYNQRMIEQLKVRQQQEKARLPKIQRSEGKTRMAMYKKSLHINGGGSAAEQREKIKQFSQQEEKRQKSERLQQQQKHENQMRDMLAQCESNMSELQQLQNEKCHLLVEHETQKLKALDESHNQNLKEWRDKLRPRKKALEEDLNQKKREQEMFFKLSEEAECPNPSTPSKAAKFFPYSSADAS
Sequence of Tyrosine-protein kinase Fgr (Homo sapiens) (P09769 2-529 limits assumed): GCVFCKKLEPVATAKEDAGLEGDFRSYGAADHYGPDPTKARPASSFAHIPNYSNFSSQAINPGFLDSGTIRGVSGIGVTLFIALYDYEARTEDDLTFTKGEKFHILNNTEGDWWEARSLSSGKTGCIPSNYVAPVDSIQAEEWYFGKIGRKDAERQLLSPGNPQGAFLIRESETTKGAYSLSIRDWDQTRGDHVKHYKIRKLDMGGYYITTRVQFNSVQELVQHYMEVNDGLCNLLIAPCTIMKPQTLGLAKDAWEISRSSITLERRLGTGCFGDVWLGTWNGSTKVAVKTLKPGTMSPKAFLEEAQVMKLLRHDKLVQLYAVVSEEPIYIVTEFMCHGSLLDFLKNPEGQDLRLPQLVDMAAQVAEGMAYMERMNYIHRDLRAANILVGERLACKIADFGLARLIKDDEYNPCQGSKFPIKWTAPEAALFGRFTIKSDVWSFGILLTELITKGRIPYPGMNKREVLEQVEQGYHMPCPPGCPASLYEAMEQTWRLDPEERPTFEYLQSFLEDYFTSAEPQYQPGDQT

In [1], `COc1cc(N(C)c2ccnc3ccc(C(F)(F)F)cc23)cc(OC)c1OC` gave a % binding of 72%.
In the case of `Nc1cnc(N2CCc3cc(S(=O)(=O)Nc4c(F)cc(Cl)cc4F)cc(N4CCCC4=O)c32)nc1` [TP-020n], the % of control in [2] came to 100%.
On to `N#Cc1cccc(-c2c[nH]c3ncnc(N4CCOCC4)c23)c1`, for which the % of inhibition in [3] came out at 2%. This compound also came in with a % of control in experiment [4] of 100%.
`CCN(CC)CCCCNc1ncc2cc(-c3cc(OC)cc(OC)c3)c(NC(=O)NC(C)(C)C)nc2n1` displayed a % of control in experiment [5] of 100%.
Regarding `Cc1cc(F)c(C(=O)Nc2cccc(-c3nncn3C(C)C)n2)cc1-n1cnc(C2CC2)c1`, the % of control in experiment [6] and in experiment [7] was 100% throughout.
For `C=CC(=O)Nc1cccc(C(=O)Nc2ccc(Nc3cc(-c4[nH]c(SC)nc4C)ccn3)cc2)c1`, the % of control in [8] (at 1 µM) was 92%; in [8] (at 5 µM), 104%.
Regarding `CCC(=O)N1CCN(c2ccc(-n3c(=O)ccc4cnc5ccc(-c6cnc7ccccc7c6)cc5c43)cc2C(F)(F)F)CC1`, the % of control in experiment [9] stood at 99%; in [10], 38%.
In the case of `CN(C(=O)c1cnn2cccnc12)c1cc2c(cc1N1CCOCC1)C(=O)N(C[C@@H](F)C(C)(C)O)C2`, the dTM in [11] was -0.9 K.
Turning to `O[C@H]1CC[C@H](Nc2ncc3nc(Nc4c(F)cc(F)cc4F)n([C@H]4CCOC4)c3n2)CC1`, the % of control in [12] turned out to be 100%.
For `Cc1ccc(-c2ccc3c(ccc4sc5c(c43)NC[C@@H](C)NC5=O)n2)cn1`, the % of inhibition in [13] was -6%.
As to `COCC(=O)NC/C=C/c1ccc2ncnc(Nc3ccc(Oc4ccc(C)nc4)c(C)c3)c2c1` [CP-724714], in experiment [14], the % of control was 79%.
